Data as given in patent US20230190967A1, “Method and Composition for Evaluating Response to Neurodegenerative Disease Treatment Agent” (GENUV INC., priority 2020, published 2023).
Entries after “also recorded” stand apart in the source; their conditions may differ. Read-outs that look alike come from different tables or passages of the source.

Columns and labels:
[1] = system: 8-month-old 5XFAD mouse brain cortex; assay: Single cell RNA sequencing of brain cortex: number of single cells analyzed per cell type; assay type: in vivo; details: 8-month-old 5XFAD mice cortex, trametinib 0.1 mg/kg/day
Description: (§1) Age-matched wild-type (WT) mice were orally administered vehicle for 2.5 months. Blood was obtained from all the mice at the age of 8 months after completion of the treatment and collected in EDTA tubes, which were centrifuged to obtain plasma. Mice were sacrificed by the perfusion method, and the brain cortex was extracted and immediately frozen.
(§2) Single-cell RNA sequencing analysis was performed on the 8-month-old 5XFAD mouse and wild type mouse brain cortex samples. The cortex was microdissected in HABG (Hibernate A buffer including B27 supplement and glutamine) media and digested in papain solution for 20 min at 37° C. (Brewer et al (2007). Isolation and culture of adult neurons and neurospheres. Nat Protoc 2, 1490-1498). Using a Pasteur pipette, the digested cortex was gently triturated. Cells were isolated by the density gradient method using OptiPrep (Sigma-Aldrich, D1556).
The cell suspension was diluted with Drop-seq buffer, and Drop-seq was performed using the Chromium™ Single Cell 3′ v2 Reagent Kit (Campbell et al. (2017). A molecular census of arcuate hypothalamus and median eminence cell types. Nat Neurosci 20, 484-496). Libraries were sequenced on the Illumina HiSeq X Ten, and Read 1 was 16 bp (10×™ Barcode and 10 bp UMI). […]

[2] = system: 8-month-old 5XFAD mouse brain cortex
Description: as §1, §2
The cell suspension was diluted with Drop-seq buffer, and Drop-seq was performed using the Chromium™ Single Cell 3′ v2 Reagent Kit (Campbell et al. (2017). A molecular census of arcuate hypothalamus and median eminence cell types. Nat Neurosci 20, 484-496). Libraries were sequenced on the Illumina HiSeq X Ten, and Read 1 was 16 bp (10×™ Barcode and 10 bp UMI). Cells with either very low or too high mRNA content (to only include: 200<gene number <3,000) or a high fraction of mitochondrial encoded transcripts (>20%) were filtered out. Using 20,056 cells, raw sequence data were aligned to the mouse (mm10) genome, and analyses including PCA, t-SNE, and graph-based clustering were performed with the Cell Ranger Single-Cell software.
In addition to the microglial cells, the other brain cell types were also analyzed for the genes differentially expressed between the experimental groups.

Spp1 mRNA = assay: qRT-PCR of Spp1 mRNA expression in brain tissue of 5XFAD mice; assay type: in vivo, mouse; details: 0.1 mg/kg/day
From the text: as §1
(§3) Blood was obtained from the 13-month-old mice after completion of the treatment and collected in EDTA tubes, which were centrifuged to obtain plasma. Mice were sacrificed, and the brain cortex was extracted, washed with PBS, and immediately frozen.
(§4) In addition, qRT-PCR was performed to measure the mRNA expression level in the brain tissue of each animal. […] Reverse transcription was performed using M-MLV reverse transcriptase (Invitrogen, 28025013). qRT-PCR was performed using the SYBRTM Green PCR master mix (Thermo, 4367659) according to the manufacturer's instructions. Results were expressed relative to the housekeeping gene GAPDH (Glyceraldehyde-3-Phosphate Dehydrogenase).

Osteopontin (OPN) = assay: ELISA of plasma osteopontin in 5XFAD mice; assay type: in vivo, mouse; details: for Decrease of plasma osteopontin (OPN) level vs. 5XFAD-vehicle group: 8-month-old 5XFAD
From the text: as §1, §3
(§5) ELISA was performed to detect changes in the level of biomarkers in the plasma of 5XFAD mice. The following ELISA kits were used for each of the biomarkers: • Neurofilament-light chain (NfL): Cloud-Clone, SEE038Mu • Cathepsin B (CTSB): Novus, NBP2-67254 • Osteopontin (OPN): LS bio, LS-F26046-1 • Synaptotagmin-1 (Syt1): LS bio, LS-F30963-1 • Apolipoprotein-E (ApoE): Novus, NBP2-66739
(§6) NfL, CTSB and ApoE were detected by colorimetric methods. OPN and Syt1 were detected by chemiluminescent methods. ELISA was performed according to the ELISA kit manufacturer's instructions.

Synaptotagmin-1 (Syt1) = assay: ELISA of plasma synaptotagmin-1 in 5XFAD mice; assay type: in vivo, mouse; details: 8-month-old 5XFAD
Description: as §1, §5, §6

Apolipoprotein-E (ApoE) = assay: ELISA of plasma apolipoprotein-E in 5XFAD mice; assay type: in vivo, mouse; details: 8-month-old 5XFAD
Description: as §1, §5, §6

Cathepsin B (CTSB) = system: Cathepsin B (CTSB)
From the text: as §1, §3, §5, §6

[3] = system: Neurofilament-light chain (NfL); assay: ELISA of plasma neurofilament light chain in 5XFAD mice; assay type: in vivo, mouse
From the text: as §1, §3, §5, §6

Map2, a dendrite marker = assay: Immunohistochemical analysis of Map2 (dendrite/neurite marker) in brain tissue of 5XFAD mice; assay type: in vivo, mouse; details: 8-month-old 5XFAD mice, FIGS. 8 and 9
From the text: as §1
The sections were counterstained with DAPI.

C57BL/6 mice whole brain = assay: Whole cell RNA sequencing of whole brain of C57BL/6 mice after 1, 2, 3, or 4 weeks of administration; assay type: in vivo, mouse; details: 0.1 mg/kg/day
Description: Mice were sacrificed after 1, 2, 3, or 4 weeks of administration. Whole brain was extracted.
Whole cell RNA sequencing analysis was performed with the RNA isolated from the whole brain of the mice to observe the change of genes in the brain during the administration period.
The whole cell RNA sequencing was performed as follows. RNA was isolated from the whole brains of the mice, and cDNA libraries for RNA sequencing were prepared using the TruSeq Stranded mRNA Prep Kit (Illumina, San Diego, Calif.) according to the manufacturer's guidelines. The libraries were sequenced on the Illumina Nextseq500 platform, and the reads were mapped to the reference Mouse mm10 genome using Tophat v2.0.13. After read mapping, transcript assembly was performed using StringTie program. The expression profile for each sample was obtained, and RPKM (Read per Kilobase per million mapped reads) values were calculated based on the transcripts/genes. To compare the gene expression levels in each experimental group, DEG (Differentially Expressed Genes) were analyzed using DESeq2. As a result, 196 genes satisfying |fc|>=2, p value <0.05 in at least one comparison set were extracted. The extracted gene information was checked in KEGG database (http://www.kegg.jp/kegg/pathway.html) to identify which pathway the genes belong to. Genes showing at least a twofold increase in the expression level in the corresponding pathway were marked bold, and those showing at least a twofold decrease were marked italic on the right side of the heatmap (FIG. 10).

H2-Ob mRNA = assay: qRT-PCR of H2-Ob mRNA expression in brain cortex of 5XFAD mice; assay type: in vivo, mouse; details: 8-month-old 5XFAD mice brain cortex, 0.1 mg/kg/day trametinib, FIG. 11
Description: as §1, §4

[4] = M (microglia), 8-month-old 5XFAD cortex, 0.1 mg/kg/day
[5] = microglia cluster, 5XFAD-Tra 0.1 group
[6] = 8-month-old 5XFAD, trametinib 0.1 mg/kg/day, statistically significant
[7] = C57BL/6 mice whole brain, at least twofold

With `CC(=O)Nc1cccc(-n2c(=O)n(C3CC3)c(=O)c3c(Nc4ccc(I)cc4F)n(C)c(=O)c(C)c32)c1` [trametinib, N-(3-{3-cyclopropyl-5-[(2-fluoro-4-iodophenyl)amino]-6,8-dimethyl-2,4,7-trioxo-3,4,6,7-tetrahydropyrido[4,3-d]pyrimidin-1(2H)-yl}phenyl)acetamide] the “Microglial population compared to the 5XFAD-vehicle group” value [1] was “decrease”, the “Log2(5XFAD-Tra0.1/5XFAD-Veh) ApoE (Apolipoprotein E)” value ([2]; Astro (Astrocyte), 8-month-old 5XFAD cortex, 0.1 mg/kg/day) was −0.5177 and the “Log2(5XFAD-Tra0.1/5XFAD-Veh) CTSB (Cathepsin B)” value ([2]; Endo (Endothelial), 8-month-old 5XFAD cortex, 0.1 mg/kg/day) was 0.8182. The “Log2(5XFAD-Tra0.1/5XFAD-Veh) CTSE (Cathepsin E)” value [2, 4] was −0.543, the “Log2(5XFAD-Tra0.1/5XFAD-Veh) Spp1 (Osteopontin)” value [2, 4] was −0.646 and the “Decrease of Spp1 expression compared to the 5XFAD-vehicle group” value [2, 5] was “at least 1.5 fold”. The “Decrease of Wfdc17 expression compared to the 5XFAD-vehicle group” value [2, 5] was “at least 1.5 fold”, the “Expression of the Spp1 gene (in words)” value [2, 5] was “decreased” and the “Increase of Acta2 expression compared to the 5XFAD-vehicle group” value [2, 5] was “at least 1.5 fold”. For the same molecule, the “Increase of Ptgds expression compared to the 5XFAD-vehicle group” value [2, 5] was “at least 1.5 fold”, the “Increase of Rpl9-ps6 expression compared to the 5XFAD-vehicle group” value [2, 5] was “at least 1.5 fold” and the “Increase of Rpl10-ps3 expression compared to the 5XFAD-vehicle group” value [2, 5] was “at least 1.5 fold”. For the same molecule, the “Spp1 level (mRNA) compared with the 5XFAD-vehicle group” value (Spp1 mRNA; 8-month-old 5XFAD mice cortex, FIG. 1A) was “decreasing trend”, the “Spp1 level (mRNA) compared with the 5XFAD-vehicle group” value (Spp1 mRNA; 13-month-old 5XFAD mice brain, FIG. 1B) was “decreasing trend” and the “Decrease of plasma osteopontin (OPN) level vs. 5XFAD-vehicle group” value (Osteopontin (OPN); trametinib 0.05 mg/kg/day) was 40%. The “Decrease of plasma osteopontin (OPN) level vs. 5XFAD-vehicle group” value (Osteopontin (OPN); trametinib 0.1 mg/kg/day) was 43.9%, the “Decrease of plasma osteopontin (OPN) level vs. vehicle group” value (Osteopontin (OPN); 13-month-old 5XFAD, trametinib 0.1 mg/kg/day 1 month, statistically significant) was 61.5% and the “Decrease of plasma synaptotagmin-1 (Syt1) level vs. 5XFAD-vehicle group” value (Synaptotagmin-1 (Syt1); trametinib 0.05 mg/kg/day) was 26.2%. The “Decrease of plasma synaptotagmin-1 (Syt1) level vs. 5XFAD-vehicle group” value (Synaptotagmin-1 (Syt1); trametinib 0.1 mg/kg/day) was 41.0%, the “Decrease of plasma apolipoprotein-E (APOE) level vs. 5XFAD-vehicle group” value (Apolipoprotein-E (ApoE); trametinib 0.1 mg/kg/day) was 34.3% and the “Decrease of plasma apolipoprotein-E (APOE) level vs. 5XFAD-vehicle group” value (Apolipoprotein-E (ApoE); trametinib 0.2 mg/kg, statistically significant) was 58.9%. For the same molecule, the “Decrease of plasma cathepsin B level vs. 5XFAD-vehicle group” value (Cathepsin B (CTSB); 8-month-old 5XFAD, trametinib 0.05 mg/kg/day) was 62.4%, the “Decrease of plasma cathepsin B level vs. 5XFAD-vehicle group” value (Cathepsin B (CTSB); [6]) was 99% and the “Decrease of plasma cathepsin B level vs. 5XFAD-vehicle group” value (Cathepsin B (CTSB); 13-month-old 5XFAD, trametinib 0.1 mg/kg/day 1 month, FIG. 6) was 35%. The “Decrease of plasma neurofilament light chain (NfL) level vs. 5XFAD-vehicle group” value [3, 6] was 47.4%, the “Plasma NfL levels, vehicle vs. trametinib-administered groups” value ([3]; 13-month-old 5XFAD, trametinib 0.1 mg/kg/day 1 month, FIG. 7B) was “did not show a significant difference” and the “Neurite marker (Map2) in the brain tissue” value (Map2, a dendrite marker) was “increased”. For the same molecule, the “Genes showing an increase in the expression level in weeks 1 and 2” value (C57BL/6 mice whole brain; [7]) was “Oprm1, Glp1r, Grin2a, Grin2b, Glra3,; also recorded: Glra1, Cnr2, Grin3b, Gabrr2, Ksr2, Cdh1,; also recorded: Tead4, Ctnna3, PDE11a, Nt5cla”, the “Genes showing an increase in the expression level in weeks 3 and 4” value (C57BL/6 mice whole brain; [7]) was “Plin4, H2-Ob, Hspa1l, HSPa1b, Hnmpa1,; also recorded: Nos2, Rab5c” and the “Genes showing a decrease in the expression level in weeks 1 and 2” value (C57BL/6 mice whole brain; [7]) was “Pla2g4c, C1s2”. For the same molecule, the “Genes showing a decrease in the expression level in weeks 3 and 4” value (C57BL/6 mice whole brain; [7]) was “Efna4, Scd4, Cd36, Ppp3r2”, the “H2-Ob level (whole brain RNA sequencing)” value (C57BL/6 mice whole brain; C57BL/6 mice, 3 and 4 weeks after the administration) was “remarkably increased” and the “H2-Ob mRNA expression level compared to the 5XFAD-vehicle group” value (H2-Ob mRNA) was “significantly increased”.
